Molecular target: T1, Dihydrofolate reductase (Homo sapiens, UniProt P00374)
T1 sequence (P00374 whole entry): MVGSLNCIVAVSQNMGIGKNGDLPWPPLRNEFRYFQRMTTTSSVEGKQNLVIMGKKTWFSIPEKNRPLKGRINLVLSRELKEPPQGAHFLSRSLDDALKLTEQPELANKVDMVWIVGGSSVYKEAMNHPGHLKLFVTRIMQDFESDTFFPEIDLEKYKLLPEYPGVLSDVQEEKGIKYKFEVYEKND
Assay: Inhibition of human DHFR assessed as conversion of dihydrofolic acid to tetrahydrfolic acid by enzyme immunoassay in presence of NADPH
Settings: not given

Compound	IC50 [nM]	Ki [nM]
O=C1Nc2ccccc2/C1=C/c1cn(CC(O)Cn2cc(/C=C3\C(=O)Nc4ccccc43)c3ccccc32)c2ccccc12 (stereo unspecified)	30	5.83

Tested on: not listed separately
Assay: Cytotoxicity against human HL-60(TB) cells assessed as cell growth at 10^-5 M after 48 hrs by sulforhodamine B assay
Type: functional
Settings: HL-60, 48 h, read-out: Activity

Compound	growth at 10 µM [%]
O=C1Nc2ccccc2/C1=C/c1cn(CC(O)Cn2cc(/C=C3\C(=O)Nc4ccccc43)c3ccccc32)c2ccccc12 (stereo unspecified)	-10.2

Tested on: K562
Assay: Cytotoxicity against human K562 cells assessed as cell growth at 10^-5 M after 48 hrs by sulforhodamine B assay
Type: functional
Settings: K562, 48 h, read-out: Activity

Compound	growth at 10 µM [%]
O=C1Nc2ccccc2/C1=C/c1cn(CC(O)Cn2cc(/C=C3\C(=O)Nc4ccccc43)c3ccccc32)c2ccccc12 (stereo unspecified)	-16.7

Tested on: not listed separately
Assay: Cytotoxicity against human MOLT4 cells assessed as cell growth at 10^-5 M after 48 hrs by sulforhodamine B assay
Type: functional
Settings: MOLT-4, 48 h, read-out: Activity

Compound	growth at 10 µM [%]
O=C1Nc2ccccc2/C1=C/c1cn(CC(O)Cn2cc(/C=C3\C(=O)Nc4ccccc43)c3ccccc32)c2ccccc12 (stereo unspecified)	-29.4

Tested on: SR
Assay: Cytotoxicity against human SR cells assessed as cell growth at 10^-5 M after 48 hrs by sulforhodamine B assay
Type: functional
Settings: read-out: Activity

Compound	growth at 10 µM [%]
O=C1Nc2ccccc2/C1=C/c1cn(CC(O)Cn2cc(/C=C3\C(=O)Nc4ccccc43)c3ccccc32)c2ccccc12 (stereo unspecified)	-2.94

Tested on: A549
Assay: Cytotoxicity against human A549 cells assessed as cell growth at 10^-5 M after 48 hrs by sulforhodamine B assay
Type: functional
Settings: A549, 48 h, read-out: Activity

Compound	growth at 10 µM [%]
O=C1Nc2ccccc2/C1=C/c1cn(CC(O)Cn2cc(/C=C3\C(=O)Nc4ccccc43)c3ccccc32)c2ccccc12 (stereo unspecified)	-11.6

Tested on: EKVX
Assay: Cytotoxicity against human EKVX cells assessed as cell growth at 10^-5 M after 48 hrs by sulforhodamine B assay
Type: functional
Settings: read-out: Activity

Compound	growth at 10 µM [%]
O=C1Nc2ccccc2/C1=C/c1cn(CC(O)Cn2cc(/C=C3\C(=O)Nc4ccccc43)c3ccccc32)c2ccccc12 (stereo unspecified)	-62.3

Tested on: NCI-H226
Assay: Cytotoxicity against human NCI-H226 cells assessed as cell growth at 10^-5 M after 48 hrs by sulforhodamine B assay
Type: functional
Settings: NCI-H226, 48 h, read-out: Activity

Compound	growth at 10 µM [%]
O=C1Nc2ccccc2/C1=C/c1cn(CC(O)Cn2cc(/C=C3\C(=O)Nc4ccccc43)c3ccccc32)c2ccccc12 (stereo unspecified)	-74.8

Tested on: NCI-H460
Assay: Cytotoxicity against human NCI-H460 cells assessed as cell growth at 10^-5 M after 48 hrs by sulforhodamine B assay
Type: functional
Settings: NCI-H460, 48 h, read-out: Activity

Compound	growth at 10 µM [%]
O=C1Nc2ccccc2/C1=C/c1cn(CC(O)Cn2cc(/C=C3\C(=O)Nc4ccccc43)c3ccccc32)c2ccccc12 (stereo unspecified)	-65.1

Tested on: not listed separately
Assay: Cytotoxicity against human HCC2998 cells assessed as cell growth at 10^-5 M after 48 hrs by sulforhodamine B assay
Type: functional
Settings: HCC 2998, 48 h, read-out: Activity

Compound	growth at 10 µM [%]
O=C1Nc2ccccc2/C1=C/c1cn(CC(O)Cn2cc(/C=C3\C(=O)Nc4ccccc43)c3ccccc32)c2ccccc12 (stereo unspecified)	-16.9

Tested on: not listed separately
Assay: Cytotoxicity against human HCT15 cells assessed as cell growth at 10^-5 M after 48 hrs by sulforhodamine B assay
Type: functional
Settings: HCT-15, 48 h, read-out: Activity

Compound	growth at 10 µM [%]
O=C1Nc2ccccc2/C1=C/c1cn(CC(O)Cn2cc(/C=C3\C(=O)Nc4ccccc43)c3ccccc32)c2ccccc12 (stereo unspecified)	-69.8

Tested on: HT-29
Assay: Cytotoxicity against human HT-29 cells assessed as cell growth at 10^-5 M after 48 hrs by sulforhodamine B assay
Type: functional
Settings: HT-29, 48 h, read-out: Activity

Compound	growth at 10 µM [%]
O=C1Nc2ccccc2/C1=C/c1cn(CC(O)Cn2cc(/C=C3\C(=O)Nc4ccccc43)c3ccccc32)c2ccccc12 (stereo unspecified)	-20.2

Tested on: not listed separately
Assay: Cytotoxicity against human SW620 cells assessed as cell growth at 10^-5 M after 48 hrs by sulforhodamine B assay
Type: functional
Settings: SW-620, 48 h, read-out: Activity

Compound	growth at 10 µM [%]
O=C1Nc2ccccc2/C1=C/c1cn(CC(O)Cn2cc(/C=C3\C(=O)Nc4ccccc43)c3ccccc32)c2ccccc12 (stereo unspecified)	-60.4

Tested on: not listed separately
Assay: Cytotoxicity against human SF268 cells assessed as cell growth at 10^-5 M after 48 hrs by sulforhodamine B assay
Type: functional
Settings: SF-268, 48 h, read-out: Activity

Compound	growth at 10 µM [%]
O=C1Nc2ccccc2/C1=C/c1cn(CC(O)Cn2cc(/C=C3\C(=O)Nc4ccccc43)c3ccccc32)c2ccccc12 (stereo unspecified)	-62

Tested on: not listed separately
Assay: Cytotoxicity against human SF295 cells assessed as cell growth at 10^-5 M after 48 hrs by sulforhodamine B assay
Type: functional
Settings: SF-295, 48 h, read-out: Activity

Compound	growth at 10 µM [%]
O=C1Nc2ccccc2/C1=C/c1cn(CC(O)Cn2cc(/C=C3\C(=O)Nc4ccccc43)c3ccccc32)c2ccccc12 (stereo unspecified)	-84.7

Tested on: not listed separately
Assay: Cytotoxicity against human SF539 cells assessed as cell growth at 10^-5 M after 48 hrs by sulforhodamine B assay
Type: functional
Settings: SF-539, 48 h, read-out: Activity

Compound	growth at 10 µM [%]
O=C1Nc2ccccc2/C1=C/c1cn(CC(O)Cn2cc(/C=C3\C(=O)Nc4ccccc43)c3ccccc32)c2ccccc12 (stereo unspecified)	-77.7

Tested on: not listed separately
Assay: Cytotoxicity against human SNB19 cells assessed as cell growth at 10^-5 M after 48 hrs by sulforhodamine B assay
Type: functional
Settings: SNB-19, 48 h, read-out: Activity

Compound	growth at 10 µM [%]
O=C1Nc2ccccc2/C1=C/c1cn(CC(O)Cn2cc(/C=C3\C(=O)Nc4ccccc43)c3ccccc32)c2ccccc12 (stereo unspecified)	-43

Tested on: M14
Assay: Cytotoxicity against human M14 cells assessed as cell growth at 10^-5 M after 48 hrs by sulforhodamine B assay
Type: functional
Settings: M14, 48 h, read-out: Activity

Compound	growth at 10 µM [%]
O=C1Nc2ccccc2/C1=C/c1cn(CC(O)Cn2cc(/C=C3\C(=O)Nc4ccccc43)c3ccccc32)c2ccccc12 (stereo unspecified)	-81.4

Tested on: MDA-MB-435
Assay: Cytotoxicity against human MDA-MB-435 cells assessed as cell growth at 10^-5 M after 48 hrs by sulforhodamine B assay
Type: functional
Settings: MDA-MB-435, 48 h, read-out: Activity

Compound	growth at 10 µM [%]
O=C1Nc2ccccc2/C1=C/c1cn(CC(O)Cn2cc(/C=C3\C(=O)Nc4ccccc43)c3ccccc32)c2ccccc12 (stereo unspecified)	-87.6

Tested on: SK-MEL-2
Assay: Cytotoxicity against human SK-MEL-2 cells assessed as cell growth at 10^-5 M after 48 hrs by sulforhodamine B assay
Type: functional
Settings: SK-MEL-2, 48 h, read-out: Activity

Compound	growth at 10 µM [%]
O=C1Nc2ccccc2/C1=C/c1cn(CC(O)Cn2cc(/C=C3\C(=O)Nc4ccccc43)c3ccccc32)c2ccccc12 (stereo unspecified)	-57.6

Tested on: SK-MEL-28
Assay: Cytotoxicity against human SK-MEL-28 cells assessed as cell growth at 10^-5 M after 48 hrs by sulforhodamine B assay
Type: functional
Settings: SK-MEL-28, 48 h, read-out: Activity

Compound	growth at 10 µM [%]
O=C1Nc2ccccc2/C1=C/c1cn(CC(O)Cn2cc(/C=C3\C(=O)Nc4ccccc43)c3ccccc32)c2ccccc12 (stereo unspecified)	-85

Tested on: not listed separately
Assay: Cytotoxicity against human UACC257 cells assessed as cell growth at 10^-5 M after 48 hrs by sulforhodamine B assay
Type: functional
Settings: UACC-257, 48 h, read-out: Activity

Compound	growth at 10 µM [%]
O=C1Nc2ccccc2/C1=C/c1cn(CC(O)Cn2cc(/C=C3\C(=O)Nc4ccccc43)c3ccccc32)c2ccccc12 (stereo unspecified)	-51

Tested on: not listed separately
Assay: Cytotoxicity against human IGROV1 cells assessed as cell growth at 10^-5 M after 48 hrs by sulforhodamine B assay
Type: functional
Settings: IGROV-1, 48 h, read-out: Activity

Compound	growth at 10 µM [%]
O=C1Nc2ccccc2/C1=C/c1cn(CC(O)Cn2cc(/C=C3\C(=O)Nc4ccccc43)c3ccccc32)c2ccccc12 (stereo unspecified)	-67.4

Tested on: not listed separately
Assay: Cytotoxicity against human OVCAR5 cells assessed as cell growth at 10^-5 M after 48 hrs by sulforhodamine B assay
Type: functional
Settings: OVCAR-5, 48 h, read-out: Activity

Compound	growth at 10 µM [%]
O=C1Nc2ccccc2/C1=C/c1cn(CC(O)Cn2cc(/C=C3\C(=O)Nc4ccccc43)c3ccccc32)c2ccccc12 (stereo unspecified)	-34.1

Tested on: not listed separately
Assay: Cytotoxicity against human NCI-ADR-RES cells assessed as cell growth at 10^-5 M after 48 hrs by sulforhodamine B assay
Type: functional
Settings: read-out: Activity

Compound	growth at 10 µM [%]
O=C1Nc2ccccc2/C1=C/c1cn(CC(O)Cn2cc(/C=C3\C(=O)Nc4ccccc43)c3ccccc32)c2ccccc12 (stereo unspecified)	31.8

Tested on: not listed separately
Assay: Cytotoxicity against human SKOV3 cells assessed as cell growth at 10^-5 M after 48 hrs by sulforhodamine B assay
Type: functional
Settings: SK-OV-3, 48 h, read-out: Activity

Compound	growth at 10 µM [%]
O=C1Nc2ccccc2/C1=C/c1cn(CC(O)Cn2cc(/C=C3\C(=O)Nc4ccccc43)c3ccccc32)c2ccccc12 (stereo unspecified)	-38.2

Tested on: 786-0
Assay: Cytotoxicity against human 786-0 cells assessed as cell growth at 10^-5 M after 48 hrs by sulforhodamine B assay
Type: functional
Settings: 786-0, 48 h, read-out: Activity

Compound	growth at 10 µM [%]
O=C1Nc2ccccc2/C1=C/c1cn(CC(O)Cn2cc(/C=C3\C(=O)Nc4ccccc43)c3ccccc32)c2ccccc12 (stereo unspecified)	-70.8

Tested on: A498
Assay: Cytotoxicity against human A498 cells assessed as cell growth at 10^-5 M after 48 hrs by sulforhodamine B assay
Type: functional
Settings: A498, 48 h, read-out: Activity

Compound	growth at 10 µM [%]
O=C1Nc2ccccc2/C1=C/c1cn(CC(O)Cn2cc(/C=C3\C(=O)Nc4ccccc43)c3ccccc32)c2ccccc12 (stereo unspecified)	-73.2

Tested on: not listed separately
Assay: Cytotoxicity against human Caki1 cells assessed as cell growth at 10^-5 M after 48 hrs by sulforhodamine B assay
Type: functional
Settings: CAKI-1, 48 h, read-out: Activity

Compound	growth at 10 µM [%]
O=C1Nc2ccccc2/C1=C/c1cn(CC(O)Cn2cc(/C=C3\C(=O)Nc4ccccc43)c3ccccc32)c2ccccc12 (stereo unspecified)	9.83

Tested on: not listed separately
Assay: Cytotoxicity against human RXF393 cells assessed as cell growth at 10^-5 M after 48 hrs by sulforhodamine B assay
Type: functional
Settings: RXF 393, 48 h, read-out: Activity

Compound	growth at 10 µM [%]
O=C1Nc2ccccc2/C1=C/c1cn(CC(O)Cn2cc(/C=C3\C(=O)Nc4ccccc43)c3ccccc32)c2ccccc12 (stereo unspecified)	-90.8

Tested on: not listed separately
Assay: Cytotoxicity against human UO31 cells assessed as cell growth at 10^-5 M after 48 hrs by sulforhodamine B assay
Type: functional
Settings: UO-31, 48 h, read-out: Activity

Compound	growth at 10 µM [%]
O=C1Nc2ccccc2/C1=C/c1cn(CC(O)Cn2cc(/C=C3\C(=O)Nc4ccccc43)c3ccccc32)c2ccccc12 (stereo unspecified)	-9.18

Tested on: not listed separately
Assay: Cytotoxicity against human PC3 cells assessed as cell growth at 10^-5 M after 48 hrs by sulforhodamine B assay
Type: functional
Settings: PC-3, 48 h, read-out: Activity

Compound	growth at 10 µM [%]
O=C1Nc2ccccc2/C1=C/c1cn(CC(O)Cn2cc(/C=C3\C(=O)Nc4ccccc43)c3ccccc32)c2ccccc12 (stereo unspecified)	-86.3

Tested on: not listed separately
Assay: Cytotoxicity against human DU145 cells assessed as cell growth at 10^-5 M after 48 hrs by sulforhodamine B assay
Type: functional
Settings: DU-145, 48 h, read-out: Activity

Compound	growth at 10 µM [%]
O=C1Nc2ccccc2/C1=C/c1cn(CC(O)Cn2cc(/C=C3\C(=O)Nc4ccccc43)c3ccccc32)c2ccccc12 (stereo unspecified)	-90.5

Tested on: MDA-MB-231
Assay: Cytotoxicity against human MDA-MB-231 cells assessed as cell growth at 10^-5 M after 48 hrs by sulforhodamine B assay
Type: functional
Settings: MDA-MB-231, 48 h, read-out: Activity

Compound	growth at 10 µM [%]
O=C1Nc2ccccc2/C1=C/c1cn(CC(O)Cn2cc(/C=C3\C(=O)Nc4ccccc43)c3ccccc32)c2ccccc12 (stereo unspecified)	-80

Tested on: not listed separately
Assay: Cytotoxicity against human BT549 cells assessed as cell growth at 10^-5 M after 48 hrs by sulforhodamine B assay
Type: functional
Settings: BT-549, 48 h, read-out: Activity

Compound	growth at 10 µM [%]
O=C1Nc2ccccc2/C1=C/c1cn(CC(O)Cn2cc(/C=C3\C(=O)Nc4ccccc43)c3ccccc32)c2ccccc12 (stereo unspecified)	-55.3

Reference: ChEMBL document CHEMBL3785084, “Rational modification of the lead molecule: Enhancement in the anticancer and dihydrofolate reductase inhibitory activity” (Bioorg Med Chem Lett, 2016)
